According to ChEMBL document CHEMBL4616706 (ACS Med Chem Lett, 2020):
pIC50: −log10 of the molar value. Converted amounts (≈) assume the structure as drawn. One block for each molecule: values may come before it.

Assays:
[1] = Clearance in human hepatocytes assessed per million cells; type: ADME, cell-based, Hepatocyte; settings: read-out: CLH
[2] = Solubility of compound by LYSA assay; type: physicochemical
Gamma-secretase [3] = assay: Modulation of gamma secretase in human H4 cells overexpressing human APP695 harboring K595N/M596L Swedish double mutant assessed as reduction in total amyloid beta (1 to 42 residues) production measured after 24 hrs by AlphaLISA assay; type: cell-based
P-gp (ABCB1) = P-gp (ABCB1) (Homo sapiens, UniProt P08183); assay: Substrate activity at human P-gp assessed as efflux ratio; type: ADME; settings: not told
[4] = Clearance in rat hepatocytes assessed per million cells; type: ADME, cell-based, Hepatocyte; settings: read-out: CLH
[5] = Oral bioavailability in Wistar rat at 3 mg/kg administered as single dose; type: ADME, organism-based; settings: in vivo
[6] = Genotoxicity in Salmonella typhimurium by Ames test; type: toxicity; settings: salmonella enterica subsp. enterica serovar typhimurium
Mus musculus = assay: In vivo modulation of gamma secretase in APP Swedish double transgenic mouse assessed as reduction in free amyloid beta (1 to 42 residues) production measured after 4 hrs by AlphaLISA assay; type: functional, organism-based
[7] = Unbound fraction in rat plasma; type: ADME, cell-free
[8] = Distribution coefficient, logD of compound; type: physicochemical; settings: octanol/water
[9] = Unbound fraction in mouse plasma; type: ADME, cell-free
[10] = Terminal half life in Wistar rat at 1 mg/kg, iv administered as single dose; type: ADME, organism-based; settings: in vivo, read-out: beta t1/2 (converted)
[11] = Modulation of mouse gamma secretase in N2A cells assessed as reduction in total amyloid beta (1 to 42 residues) production; type: cell-based
[12] = Clearance in mouse hepatocytes assessed per million cells; type: ADME, cell-based, Hepatocyte; settings: read-out: CLH
[13] = Clearance in Wistar rat at 1 mg/kg, iv administered as single dose; type: ADME, organism-based; settings: in vivo
[14] = Unbound fraction in human plasma; type: ADME, cell-free
[15] = Glutathione reactivity of compound; type: physicochemical
[16] = Volume of distribution at steady state in Wistar rat at 1 mg/kg, iv administered as single dose; type: ADME, organism-based; settings: in vivo, read-out: Vdss
[17] = Modulation of mouse gamma secretase in N2A cells assessed as reduction in free amyloid beta (1 to 42 residues) production; type: cell-based
[18] = Volume of distribution at steady state in C57BL/6J mouse at 1 mg/kg, iv administered as single dose; type: ADME, organism-based; settings: in vivo, read-out: Vdss
[19] = Oral bioavailability in C57BL/6J mouse at 3 mg/kg administered as single dose; type: ADME, organism-based; settings: in vivo
[20] = Terminal half life in C57BL/6J mouse at 1 mg/kg, iv administered as single dose; type: ADME, organism-based; settings: in vivo, read-out: beta t1/2 (converted)
Gamma-secretase [21] = assay: Modulation of human gamma secretase expressed in HEK293 cells assessed as reduction in free amyloid beta (1 to 42 residues) production; type: cell-based
hERG (KCNH2) = hERG (KCNH2) (Homo sapiens, UniProt Q12809); assay: (§1) Inhibition of human ERG; settings: human
[22] = target: Voltage-gated inwardly rectifying potassium channel KCNH2 (Homo sapiens, UniProt Q12809); assay: as §1
P-gp = assay: Substrate activity at mouse P-gp assessed as efflux ratio; type: ADME; settings: not told
Gamma-secretase [23] = assay: Modulation of human gamma secretase expressed in HEK293 cells assessed as reduction in total amyloid beta (1 to 42 residues) production; type: cell-based
Gamma-secretase [24] = assay: Modulation of gamma secretase in human H4 cells overexpressing human APP695 harboring K595N/M596L Swedish double mutant assessed as reduction in free amyloid beta (1 to 42 residues) production measured after 24 hrs by AlphaLISA assay; type: cell-based
[25] = Clearance in C57BL/6J mouse at 1 mg/kg, iv administered as single dose; type: ADME, organism-based; settings: in vivo

Voltage-gated inwardly rectifying potassium channel KCNH2, sequence (Q12809 whole entry): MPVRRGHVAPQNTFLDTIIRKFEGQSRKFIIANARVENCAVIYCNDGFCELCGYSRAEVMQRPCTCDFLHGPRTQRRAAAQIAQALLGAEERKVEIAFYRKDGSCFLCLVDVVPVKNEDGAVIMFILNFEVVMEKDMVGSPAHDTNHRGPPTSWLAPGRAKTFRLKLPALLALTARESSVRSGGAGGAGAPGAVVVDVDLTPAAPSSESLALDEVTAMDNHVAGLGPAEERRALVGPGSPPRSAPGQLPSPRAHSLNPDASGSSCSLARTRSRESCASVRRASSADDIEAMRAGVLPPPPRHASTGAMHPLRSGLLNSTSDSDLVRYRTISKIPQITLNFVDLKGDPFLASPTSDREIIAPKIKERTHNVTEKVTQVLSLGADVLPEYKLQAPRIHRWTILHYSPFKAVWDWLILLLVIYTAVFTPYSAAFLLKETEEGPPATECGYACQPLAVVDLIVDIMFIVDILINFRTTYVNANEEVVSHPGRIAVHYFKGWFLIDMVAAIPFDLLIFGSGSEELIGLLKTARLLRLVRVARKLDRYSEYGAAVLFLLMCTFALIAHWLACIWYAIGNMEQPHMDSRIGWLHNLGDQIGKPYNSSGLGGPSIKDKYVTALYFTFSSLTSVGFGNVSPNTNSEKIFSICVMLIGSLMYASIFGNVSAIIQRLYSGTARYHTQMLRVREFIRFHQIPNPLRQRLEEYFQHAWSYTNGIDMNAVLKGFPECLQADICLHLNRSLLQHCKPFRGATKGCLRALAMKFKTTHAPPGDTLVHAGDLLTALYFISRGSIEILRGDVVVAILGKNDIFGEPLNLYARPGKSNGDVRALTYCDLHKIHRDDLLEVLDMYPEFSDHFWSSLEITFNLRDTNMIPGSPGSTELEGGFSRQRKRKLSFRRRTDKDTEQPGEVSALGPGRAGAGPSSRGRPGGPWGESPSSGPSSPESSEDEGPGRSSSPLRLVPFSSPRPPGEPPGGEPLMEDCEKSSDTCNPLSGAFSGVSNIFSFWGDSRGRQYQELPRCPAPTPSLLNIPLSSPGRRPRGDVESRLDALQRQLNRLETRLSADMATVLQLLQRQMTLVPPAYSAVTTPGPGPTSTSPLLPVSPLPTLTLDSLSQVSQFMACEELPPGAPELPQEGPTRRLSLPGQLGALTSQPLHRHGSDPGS
hERG (KCNH2), sequence (Q12809 whole entry): as above
P-gp (ABCB1), sequence (P08183 whole entry): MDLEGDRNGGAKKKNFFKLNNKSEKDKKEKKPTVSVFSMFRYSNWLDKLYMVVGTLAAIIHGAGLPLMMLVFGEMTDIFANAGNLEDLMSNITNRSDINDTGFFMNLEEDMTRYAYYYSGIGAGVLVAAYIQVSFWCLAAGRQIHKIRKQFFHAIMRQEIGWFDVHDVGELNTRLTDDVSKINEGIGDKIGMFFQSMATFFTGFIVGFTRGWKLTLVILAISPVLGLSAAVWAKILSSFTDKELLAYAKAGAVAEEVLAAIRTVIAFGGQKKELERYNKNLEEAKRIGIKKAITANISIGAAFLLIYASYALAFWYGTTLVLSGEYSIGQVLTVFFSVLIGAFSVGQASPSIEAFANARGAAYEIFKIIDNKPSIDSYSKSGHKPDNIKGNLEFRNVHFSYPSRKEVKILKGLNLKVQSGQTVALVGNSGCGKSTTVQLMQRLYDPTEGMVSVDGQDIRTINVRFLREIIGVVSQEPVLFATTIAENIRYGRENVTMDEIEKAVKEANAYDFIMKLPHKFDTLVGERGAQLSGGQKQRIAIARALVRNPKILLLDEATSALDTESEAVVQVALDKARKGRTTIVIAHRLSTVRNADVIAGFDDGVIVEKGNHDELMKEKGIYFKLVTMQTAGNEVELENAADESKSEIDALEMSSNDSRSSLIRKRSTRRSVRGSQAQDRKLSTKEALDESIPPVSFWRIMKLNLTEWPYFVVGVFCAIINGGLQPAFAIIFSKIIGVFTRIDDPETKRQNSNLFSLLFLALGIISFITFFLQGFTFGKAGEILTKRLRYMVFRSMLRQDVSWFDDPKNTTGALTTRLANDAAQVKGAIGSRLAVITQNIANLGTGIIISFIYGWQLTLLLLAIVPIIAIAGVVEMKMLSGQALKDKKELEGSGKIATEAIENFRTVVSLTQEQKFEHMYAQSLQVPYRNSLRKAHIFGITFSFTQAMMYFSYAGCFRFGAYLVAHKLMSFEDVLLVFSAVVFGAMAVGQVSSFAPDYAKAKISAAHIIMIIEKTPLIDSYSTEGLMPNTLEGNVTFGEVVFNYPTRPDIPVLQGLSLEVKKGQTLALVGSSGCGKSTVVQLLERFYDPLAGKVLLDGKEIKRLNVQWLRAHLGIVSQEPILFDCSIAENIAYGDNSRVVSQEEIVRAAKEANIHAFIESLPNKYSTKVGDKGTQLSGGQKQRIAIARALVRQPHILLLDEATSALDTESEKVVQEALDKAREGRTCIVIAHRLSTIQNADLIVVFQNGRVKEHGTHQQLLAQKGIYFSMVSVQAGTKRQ

Compound: Cc1cc(N2C[C@H]3CC[C@@H](C2)[C@@H]3Nc2nc3n(n2)CCCN3c2ccc(F)c(F)c2)cnn1
hepatocyte CLint [1]: 2.3 µL/min/1e6 cells
solubility [2]: 131 µg/mL (≈ 289 µM)
pIC50 (Gamma-secretase [3]): 7.64
efflux ratio (P-gp (ABCB1)): 3.3

Compound: Cc1cc(N2C[C@H]3CC[C@@H](C2)[C@@H]3Nc2nc3n(n2)CCCN3c2cc(F)cc(F)c2)ncn1
hepatocyte CLint [4]: 6.4 µL/min/1e6 cells
bioavailability [5]: 82%
Activity [6]: Non-Toxic
pIC50 (Mus musculus): 8.52
fraction unbound [7]: 0.014
hepatocyte CLint [1]: 2.4 µL/min/1e6 cells
logD [8]: 3.5
solubility [2]: 6 µg/mL (≈ 13.3 µM)
fraction unbound [9]: 0.006
half-life [10]: 4.6 h
pIC50 [11]: 8.52
hepatocyte CLint [12]: 0.6 µL/min/1e6 cells
clearance [13]: 3.5 mL/min/kg
fraction unbound [14]: 0.01
Drug metabolism [15]: Not Active
Vd [16]: 1.1 L/kg
pIC50 [17]: 8.30

Compound: Cc1cc(N2C[C@H]3CC[C@@H](C2)[C@@H]3Nc2nc3n(n2)CCCN3c2ccc(F)c(F)c2)ncn1
hepatocyte CLint [1]: 2 µL/min/1e6 cells
solubility [2]: 161 µg/mL (≈ 356 µM)
pIC50 (Gamma-secretase [3]): 7.60
efflux ratio (P-gp (ABCB1)): 3.2

Compound: Cc1nnc(N2C[C@H]3CC[C@@H](C2)[C@@H]3Nc2nc3n(n2)CCCCC3c2ccc(F)c(F)c2F)o1 (mixture of isomers)
pIC50 (Gamma-secretase [3]): 7.31

Compound: Cc1noc(N2C[C@H]3CC[C@@H](C2)[C@@H]3Nc2nc3n(n2)CCCCC3c2ccc(F)c(F)c2F)n1 (mixture of isomers)
pIC50 (Gamma-secretase [3]): 7.36

Compound: Cc1cc(N2C[C@H]3CC[C@@H](C2)[C@@H]3Nc2nc3n(n2)CCCN3c2ccc(C(F)(F)F)cc2)ncn1
pIC50 (Gamma-secretase [3]): 7.96

Compound: Cc1cc(N2C[C@H]3CC[C@@H](C2)[C@@H]3Nc2nc3n(n2)CCN3c2ccc(C(F)(F)F)cc2)ncn1
pIC50 (Gamma-secretase [3]): 7.59

Compound: Fc1ccc(N2CCCCn3nc(N[C@@H]4[C@@H]5CC[C@H]4CN(c4ccnc(C(F)(F)F)c4)C5)nc32)cc1F
pIC50 (Gamma-secretase [3]): 7.47

Compound: Fc1ccc(C2CCn3nc(N[C@@H]4[C@@H]5CC[C@H]4CN(c4ccnc(C(F)(F)F)c4)C5)nc32)c(F)c1F (mixture of isomers)
pIC50 (Gamma-secretase [3]): 6.90

Compound: Cc1nnc(N2C[C@H]3CC[C@@H](C2)[C@@H]3Nc2nc3n(n2)CCCC3c2ccc(F)c(F)c2F)o1 (mixture of isomers)
pIC50 (Gamma-secretase [3]): 6.63

Compound: COc1cc(N2C[C@H]3CC[C@@H](C2)[C@@H]3Nc2nc3n(n2)CCCN3c2ccc(F)c(F)c2)ccn1
hepatocyte CLint [1]: 3.8 µL/min/1e6 cells
solubility [2]: 11 µg/mL (≈ 23.5 µM)
IC20 (hERG (KCNH2)): > 1000 nM
pIC50 [22]: < 5.70
pIC50 (Gamma-secretase [3]): 7.80
efflux ratio (P-gp (ABCB1)): 1

Compound: Fc1ccc(N2CCCn3nc(N[C@@H]4[C@@H]5CC[C@H]4CN(c4ccnc(C(F)(F)F)c4)C5)nc32)cc1F
pIC50 (Gamma-secretase [3]): 7.82

Compound: Cc1cc(N2C[C@H]3CC[C@@H](C2)[C@@H]3Nc2nc3n(n2)CCCCC3c2ccc(F)c(F)c2F)on1 (mixture of isomers)
pIC50 (Gamma-secretase [3]): 7.41

Compound: Fc1ccc(C2CCCn3nc(N[C@@H]4[C@@H]5CC[C@H]4CN(c4cc(Cl)ncn4)C5)nc32)c(F)c1F (mixture of isomers)
pIC50 (Gamma-secretase [3]): 7.52

Compound: Cc1noc(N2C[C@H]3CC[C@@H](C2)[C@@H]3Nc2nc3n(n2)CCCN3c2ccc(F)c(F)c2)n1
hepatocyte CLint [1]: 1.5 µL/min/1e6 cells
solubility [2]: 158 µg/mL (≈ 357 µM)
pIC50 (Gamma-secretase [3]): 7.49

Compound: Fc1ccc(C2CCCn3nc(N[C@@H]4[C@@H]5CC[C@H]4CN(c4ccnc(C(F)(F)F)c4)C5)nc32)c(F)c1F (mixture of isomers)
pIC50 (Gamma-secretase [3]): 7.36

The next lines start with results.

pIC50 (Gamma-secretase [3]): 7.40
Compound: COc1cc(N2C[C@H]3CC[C@@H](C2)[C@@H]3Nc2nc3n(n2)CCCCC3c2cccc(C(F)(F)F)c2)cnn1 (mixture of isomers)

pIC50 (Gamma-secretase [3]): 7.51
Compound: Fc1ccc(C2CCCCn3nc(N[C@@H]4[C@@H]5CC[C@H]4CN(c4ccnc(C(F)(F)F)c4)C5)nc32)c(F)c1F (mixture of isomers)

hepatocyte CLint [1]: 14 µL/min/1e6 cells
solubility [2]: 34 µg/mL (≈ 68.3 µM)
pIC50 (Gamma-secretase [3]): 7.72
efflux ratio (P-gp (ABCB1)): 2.2
Compound: Cc1cc(N2C[C@H]3CC[C@@H](C2)[C@@H]3Nc2nc3n(n2)CCCCC3c2cccc(C(F)(F)F)c2)ncn1 (mixture of isomers)

pIC50 (Gamma-secretase [3]): 7.72
Compound: Cc1cc(N2C[C@H]3CC[C@@H](C2)[C@@H]3Nc2nc3n(n2)CCCCN3c2ccc(C(F)(F)F)cc2)ncn1

Vd [18]: 1.1 L/kg
bioavailability [19]: 53%
half-life [20]: 3.4 h
hepatocyte CLint [4]: 43 µL/min/1e6 cells
pIC50 (Mus musculus): 8.60
fraction unbound [7]: 0.014
hepatocyte CLint [1]: 4.5 µL/min/1e6 cells
logD [8]: 3.8
fraction unbound [9]: 0.014
pIC50 [11]: 8.70
pIC50 (Gamma-secretase [21]): 8.40
hepatocyte CLint [12]: 1.4 µL/min/1e6 cells
efflux ratio (P-gp): 3.3
pIC50 (Gamma-secretase [23]): 8.70
fraction unbound [14]: 0.054
efflux ratio (P-gp (ABCB1)): 2.4
pIC50 (Gamma-secretase [24]): 8.40
Drug metabolism [15]: Not Active
clearance [25]: 5 mL/min/kg
pIC50 [17]: 8.40
Compound: Cc1cc(N2C[C@H]3CC[C@@H](C2)[C@@H]3Nc2nc3n(n2)CCCC[C@H]3c2ccc(F)c(F)c2F)ncn1
Activity [6]: Non-Toxic
IC20 (hERG (KCNH2)): 300 nM
pIC50 [22]: 5.85

hepatocyte CLint [1]: 6.5 µL/min/1e6 cells
pIC50 (Gamma-secretase [3]): 7.64
Compound: Cc1cc(N2C[C@H]3CC[C@@H](C2)[C@@H]3Nc2nc3n(n2)CCCCC3c2ccc(F)c(F)c2)ncn1 (mixture of isomers)

hepatocyte CLint [1]: 6 µL/min/1e6 cells
solubility [2]: 3.2 µg/mL (≈ 6.42 µM)
pIC50 (Gamma-secretase [3]): 7.85
efflux ratio (P-gp (ABCB1)): 1.2
Compound: COc1cc(N2C[C@H]3CC[C@@H](C2)[C@@H]3Nc2nc3n(n2)CCCCC3c2ccc(F)c(F)c2F)ccn1 (mixture of isomers)

pIC50 (Gamma-secretase [3]): 7.54
Compound: COc1cc(N2C[C@H]3CC[C@@H](C2)[C@@H]3Nc2nc3n(n2)CCCCC3c2ccc(F)c(F)c2F)ncn1 (mixture of isomers)
IC20 (hERG (KCNH2)): 200 nM
pIC50 [22]: 6.26

hepatocyte CLint [1]: 3.3 µL/min/1e6 cells
solubility [2]: 14 µg/mL (≈ 27.8 µM)
pIC50 (Gamma-secretase [3]): 7.85
efflux ratio (P-gp (ABCB1)): 4.3
Compound: Fc1ccc(C2CCCCn3nc(N[C@@H]4[C@@H]5CC[C@H]4CN(c4cnnc(Cl)c4)C5)nc32)c(F)c1F (mixture of isomers)

hepatocyte CLint [1]: 2.1 µL/min/1e6 cells
solubility [2]: 188 µg/mL (≈ 389 µM)
pIC50 (Gamma-secretase [3]): 7.52
efflux ratio (P-gp (ABCB1)): 20
Compound: Cc1cc(N2C[C@H]3CC[C@@H](C2)[C@@H]3Nc2nc3n(n2)CCCCC3c2ccc(F)c(F)c2F)cnn1 (mixture of isomers)

hepatocyte CLint [1]: 3.1 µL/min/1e6 cells
solubility [2]: 0.7 µg/mL (≈ 1.45 µM)
pIC50 (Gamma-secretase [3]): 7.82
efflux ratio (P-gp (ABCB1)): 2.1
Compound: Cc1cc(N2C[C@H]3CC[C@@H](C2)[C@@H]3Nc2nc3n(n2)CCCCC3c2ccc(F)c(F)c2F)ncn1 (mixture of isomers)

pIC50 (Gamma-secretase [3]): 7.85
Compound: Cc1cc(N2C[C@H]3CC[C@@H](C2)[C@@H]3Nc2nc3n(n2)CCCCC3c2ccc(C(F)(F)F)cc2)ncn1 (mixture of isomers)

pIC50 (Gamma-secretase [3]): 7.60
Compound: Cc1cc(N2C[C@H]3CC[C@@H](C2)[C@@H]3Nc2nc3n(n2)CCCC3c2ccc(C(F)(F)F)cc2)ncn1 (mixture of isomers)

pIC50 (Gamma-secretase [3]): 7.06
Compound: Fc1ccc(C2CCn3nc(N[C@@H]4[C@@H]5CC[C@H]4CN(c4ccnc(C(F)(F)F)c4)C5)nc32)cc1F (some centres undefined)

hepatocyte CLint [1]: 2.6 µL/min/1e6 cells
solubility [2]: < 0.3 µg/mL
pIC50 (Gamma-secretase [3]): 7.85
efflux ratio (P-gp (ABCB1)): 1.5
Compound: Fc1ccc(C2CCCCn3nc(N[C@@H]4[C@@H]5CC[C@H]4CN(c4cc(Cl)ncn4)C5)nc32)c(F)c1F (mixture of isomers)

pIC50 (Gamma-secretase [3]): 7.51
Compound: FC(F)(F)c1cccc(C2CCCCn3nc(N[C@@H]4[C@@H]5CC[C@H]4CN(c4cnnc(Cl)c4)C5)nc32)c1 (mixture of isomers)
